Where “and” joins values, the source holds several entries; their conditions need not be identical. Identical values can stand only once. The star is where a group is joined. ACC = NC(=O)Cc1cc(=O)oc2cc(N*)ccc12; AMC = Cc1cc(=O)oc2cc(N*)ccc12; Boc = CC(C)(C)OC(=O)*
Tests used:
Capan-2 cells [1] = settings: Capan-2 cells (active KLK6), 2 μM, 24 h, relative to DMSO
Description: (§1) Next, the effect of KLK6 inhibition on migration and invasion of Capan-2 cells was assessed using a Boyden chamber assay.
(§2) (13 µL per condition). Control conditions included puromycin (100 µg/mL), DMSO only, Sytox green only or DMSO + Sytox green. The final inhibitor concentrations ranged from 2 µM to 125 nM. The cells were placed into an Incucyte with the incubator set at 37 °C and 5% CO2. Phase and green fluorescence were analysed every 4 h for 5 days.
(§3) Invasion/migration assays. Cell invasion was measured using Corning Fluoroblok inserts following a modified procedure11. Fluoroblok inserts were placed into the wells of a 24-well plate. Matrigel was suspended to 300 µg/mL in coating buffer (0.01M Tris, 0.7% NaCl, pH 8). The matrigel suspension (100 µL) was added into the Fluoroblok insert and the plate was left at 37 °C for 2 h. A migration control (with no matrigel) was also included. Cells were trypsinised and resuspended in serum-free DMEM.
(§4) The leftover buffer in the chambers was decanted and 500 µL of cells (100,000 per well) were seeded into the apical chamber of the insert. DMEM with 10% FBS (750 µL) was added into the basal chamber as a chemoattractant. The plate was incubated at 37 °C and 5% CO2 for 24 h. The chambers were removed and placed into a new 24-well plate containing 50 µM of CellTracker CMHC dye in HBSS. The cells were stained for 0.5 h and the chamber was removed and placed into the previous plate containing DMEM with 10% FBS. The cells were imaged for blue fluorescence (ex/em = 375/460) using a Celena S inverted fluorescence microscope. Percentage invasion was calculated by quantifying the cell area

BxPC-3 cells = BxPC-3 cells (no active KLK6), 2 μM, 24 h, relative to DMSO
Description: as §1, §2, §3, §4

KLK6 = assay: Enzyme kinetics to calculate kobs/I, KLK6; format: biochemical, human; settings: KLK6 1.5 nM, fluorogenic substrate 22 5 µM, 50 mM Tris 150 mM NaCl 1 mM EDTA 0.05% Tween20 pH 7.5, room temperature, read every 30 s for 30 min, ex/em 380/440 nm, pseudo first order kinetics, corrected by (1 + [S]/KM), triplicates
[2] = system: intracellular proteases of Capan-2 cells; settings: live Capan-2 cells or cell lysate, 2 h, NeutrAvidin-HRP blot
Description: S12. Probe treatment in live Capan-2 cells and cell lysate
Figure S12. Capan-2 cells were grown to 80% confluency, followed by the addition of bABP 17 or FP-biotin for 2 h. Cells were lysed, boiled with Laemmli buffer and analysed using a NeutrAivdin-HRP western blot (in cell blot). Standard Capan-2 lysate was also treated with the same amounts of bABP 17 and FP-biotin, followed by the same analysis (in lysate blot).
(1 picture or pasted object on this page, not shown here)

KLK8 [3] = biological target: T1, KLK8 (Homo sapiens, UniProt O60259); assay: Enzyme kinetics to calculate kobs/I, KLK8; format: biochemical; settings: for KLK8 kobs/I: KLK8 1 nM, Boc-VPR-AMC 30 µM, 100 mM Na2PO4 0.01% Tween20 pH 8.5, room temperature, 30 min, pseudo first order kinetics, triplicates
T1 construct: Active recombinant FGFBP1 (Code 1593-FB), HSPG2 (Code 2364-ER), uPA (Code 1310-SE), tPA (Code 7449-SE) and KLK8 (Code 2025-SE) were obtained from BioTechne; purchased BioTechne 2025-SE
T1 sequence (O60259 33-260): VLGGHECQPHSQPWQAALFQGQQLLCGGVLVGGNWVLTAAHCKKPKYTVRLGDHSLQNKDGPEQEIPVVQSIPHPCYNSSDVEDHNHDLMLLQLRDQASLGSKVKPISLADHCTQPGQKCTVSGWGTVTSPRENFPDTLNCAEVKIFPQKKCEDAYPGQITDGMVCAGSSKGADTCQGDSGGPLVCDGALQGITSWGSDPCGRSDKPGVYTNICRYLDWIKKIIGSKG

KLK7 [4] = biological target: T2, KLK7 (Homo sapiens, UniProt P49862); assay: Enzyme kinetics to calculate kobs/I, KLK7; format: biochemical; settings: for KLK7 kobs/I: KLK7 34 nM, substrate 24 5 µM, 100 mM Na2PO4 0.01% Tween20 pH 8.5, room temperature, 30 min, pseudo first order kinetics, triplicates
T2 construct: gift from the group of Judith Clements (QUT)
T2 sequence (P49862 30-253): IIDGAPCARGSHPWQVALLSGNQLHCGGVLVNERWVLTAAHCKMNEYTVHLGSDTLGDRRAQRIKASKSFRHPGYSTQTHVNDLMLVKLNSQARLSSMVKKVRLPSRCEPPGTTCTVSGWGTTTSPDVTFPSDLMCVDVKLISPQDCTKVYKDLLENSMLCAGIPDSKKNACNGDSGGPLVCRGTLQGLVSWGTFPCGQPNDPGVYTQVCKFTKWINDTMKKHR
Description: (§5) Reagents were obtained from VWR, Sigma Aldrich, Sartorius, Fluorochem, AGTC, Novabiochem, TCI, Alfa Aesar, Iris Biotech, Thermofisher and Bachem. […]
(§6) (Code 7449-SE) and KLK8 (Code 2025-SE) were obtained from BioTechne. KLK6 was obtained from the group of Aubry Miller (DKFZ) and KLK7 was obtained from the group of Judith Clements (QUT).
(§7) The manufacturer’s recommended buffers were used with uPA and tPA but not KLK8. The KLK6 assay buffer was as follows: 50 mM Tris 150 mM NaCl, 1 mM EDTA, 0.05% Tween20, pH 7.5. The KLK7/8 buffer was as follows: 100 mM Na2PO4, 0.01% Tween20, pH 8.5. Fluorescence measurements were measured using an Envision plate reader. Fluorescence data was processed using Graphpad Prism 8. […]
(§8) 2-chlorotrityl chloride resin. […]

Capan-2 cells [5] = settings: 0.13 to 2 μM, Incucyte live cell imaging every 4 h for 5 days, serum-free DMEM
Description: Incucyte assays for proliferation and toxicity
Proliferation was quantified using the Incucyte software by measuring percentage confluency. Sytox
green was used as a marker for cell death. Cell death was quantified by measuring total green
fluorescence of each well.
Incucyte (proliferation and toxicity) assays. Capan-2 cells were seeded in a sterile 96 well plate
(10,000 cells per well). The outermost wells were left empty to mitigate edge effects. Cells were grown
in growth media (10% FBS) overnight to adhere. The next day, the media was replaced with serum-free
DMEM (117 µL) containing Sytox green (250 nM) or a DMSO control.

[6] = system: recombinant tPA, uPA, or KLK6; settings: 2 h incubation, then fABP 21 for 1 h, in-gel fluorescence
[7] = biological target: T3, tissue plasminogen activator (tPA) (Homo sapiens, UniProt P00750); assay: Enzyme kinetics to calculate kobs/I, tPA; format: biochemical
T3 construct: purchased BioTechne 7449-SE
T3 sequence (P00750 36-562): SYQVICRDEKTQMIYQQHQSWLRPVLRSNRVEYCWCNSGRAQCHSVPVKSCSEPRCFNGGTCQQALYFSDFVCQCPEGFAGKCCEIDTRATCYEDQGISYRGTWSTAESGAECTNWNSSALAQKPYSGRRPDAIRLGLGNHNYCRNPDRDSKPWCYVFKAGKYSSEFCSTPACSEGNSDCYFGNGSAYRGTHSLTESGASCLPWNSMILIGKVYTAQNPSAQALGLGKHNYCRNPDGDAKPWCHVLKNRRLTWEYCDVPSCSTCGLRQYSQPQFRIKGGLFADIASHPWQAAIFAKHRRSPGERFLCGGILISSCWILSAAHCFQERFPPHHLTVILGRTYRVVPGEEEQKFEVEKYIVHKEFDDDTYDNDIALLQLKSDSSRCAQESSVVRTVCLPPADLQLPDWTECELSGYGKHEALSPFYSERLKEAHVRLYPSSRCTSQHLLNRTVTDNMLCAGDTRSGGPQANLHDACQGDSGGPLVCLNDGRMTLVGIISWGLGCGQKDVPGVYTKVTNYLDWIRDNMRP
Description: as §5, §6, §7, §8

[8] = system: Capan-2 conditioned media proteome; settings: 2 μM, 1 h, NeutrAvidin enrichment, LC–MS/MS, triplicate
Description: Pulldown experiments (LC-MS/MS) Conditioned media was diluted with PBS to exactly 1 mg/mL.
300 µg of total protein was used per replicate. Each condition was performed in triplicate. The inhibitor
or DMSO control (1:100 dilution) was incubated with the media at RT for 2 h with a gentle agitation.
for 1 h. The proteins were precipitated using the MeOH/H2O/CHCl3 method. The pellet was washed
twice with MeOH and dried in air for 5 min. The proteins were resuspended in 2% SDS, 50 mM HEPES
in H2O (pH 8) to a concentration of 10 mg/mL. 50 mM HEPES was added to gradually dilute the protein
back to 1 mg/mL and the samples were centrifuged (17,000 g, 5 min). A 1:1 mixture of NeutrAvidin
agarose resin (15 µL per 300 µg protein) and control agarose resin (15 µL per 300 µg protein) was
prepared and washed with 0.2% SDS, 50 mM HEPES. The test samples were added into the resin and
the mixture was shaken at RT for 2 h. The supernatant was removed, and the beads were washed with
3 × 0.2% SDS, 50 mM HEPES and 3 × 50 mM HEPES. The beads were resuspended in 50 mM HEPES
(50 µL). TCEP was added to a final concentration of 5 mM (1:20 dilution). Chloroacetamide was added
to a final concentration of 10 mM (1:20 dilution). The mixture was shaken at RT for 30 min. To digest
the peptides off the resin, 0.5 µL of trypsin (0.2 mg/mL stock) was added into each sample and the
samples were shaken at 37 °C overnight. […]

[9] = biological target: T4, urokinase plasminogen activator (uPA) (Homo sapiens, UniProt P00749); assay: Enzyme kinetics to calculate kobs/I, uPA; format: biochemical
T4 construct: purchased BioTechne 1310-SE
Description: as §5, §6, §7, §8

endogenous active KLK6 = settings: Capan-2 conditioned media, streptavidin pulldown, KLK6 western blot
Description: Conditioned media was incubated with bABP 17 (10 μM) or DMSO for 2 h, and labeled proteins enriched on magnetic streptavidin-loaded beads, eluted, and analyzed by western blot against a KLK6 antibody.
Cell culture. Cells were cultured in their recommended culture media supplemented with 10% (v/v)
foetal bovine serum at 37 °C and 5% CO2.
Preparation of conditioned media. Cells were grown in standard growth media to 80% confluency in
a T175 flask. The medium was removed, and the cells were washed with serum-free, phenol-red free
RPMI. The cells were incubated with the same RPMI for 2 h. The medium was replaced once again
with serum-free, phenol-red free RPMI and the cells were incubated for 48 h. The condition medium
was collected and filtered through a 0.2 µm syringe filter. The medium was concentrated (25 mL to
0.75 mL) using a 3 kDa Mw cutoff spin filter to a final concentration of around 1 mg/mL. The protein
concentration was measured using a BioRad DCTM protein assay.
Pulldown experiments (western blot). Conditioned media was diluted with PBS to exactly 1 mg/mL.
200 µg of total protein was used per condition. The ABP or DMSO was added at a 1:100 dilution and
the samples were shaken at RT for 1 h. The proteins were precipitated using the MeOH/H2O/CHCl3
method. The pellet was washed twice with MeOH and dried in air for 5 min. The protein was
resuspended in 2% SDS in PBS to a concentration of 10 mg/mL. PBS was added to gradually dilute
the protein back to 1 mg/mL and the samples were centrifuged (17,000 g, 5 min). 5 µg of protein was
set aside as the “before pulldown” samples. Magnetic streptavidin beads were washed three times with
PBS. The rest of the protein was added into the beads and shaken at RT for 2 h. 5 µg of the supernatant
was set aside for analysis, while the rest was discarded. The beads were washed three times with 1%
SDS in PBS. […]
were boiled at 95 °C for 5 min. The proteins were analysed via SDS-PAGE and western blot analysis. […]
10 min, followed by 180 V for 60 min. Gels were then taken for western blot or in-gel fluorescence. […]

KLK8 [10] = biological target: T1, KLK8; assay: Enzyme kinetics to calculate KM, KLK8; format: biochemical; settings: fluorogenic substrate, KLK8 1 nM, 2% DMSO, room temperature, 30 min, Michaelis-Menten model, triplicates
Description: as §5, §6
(§9) The manufacturer’s recommended buffers were used with uPA and tPA but not KLK8. […]
(§10) Fluorescence measurements were measured using an Envision plate reader. Fluorescence data was processed using Graphpad Prism 8. […]
as §8
(§11) 380nm/440nm. The data was analysed using Graphpad Prism 8. The initial slopes of each plot were calculated and presented in a bar chart, which represents the substrate specificity of the KLK. Error bars represent the standard deviation between the three replicates.
(§12) Enzyme kinetics to calculate KM. Purified fluorogenic substrates were measured in triplicates. […]
(§13) temperature, fluorescence was read once every 30 s for 30 min from an Envision plate reader at excitation/emission wavelengths of 380nm/440nm. The data was analysed with Graphpad Prism 8, using the Michaelis-Menten model.
(§14) Enzyme kinetics to calculate kobs/I. All ABPs and inhibitors were measured in triplicates. […]
(§15) using a pseudo first order kinetics model. The observed rate of inhibition (kobs) was calculated by plotting a one-phase association. […]

[11] = system: recombinant wild-type KLK6; assay: In-gel fluorescence labelling of recombinant wild-type KLK6; format: binding, human; settings: 1 h incubation
Text: (§16) Figure 3 ABP validation. […] Pulldown lanes show enriched proteins after streptavidin binding.

KLK6[S195A] = assay: In-gel fluorescence labelling of inactive KLK6[S195A]; format: binding, human; settings: 1 h incubation
Text: as §16

KLK7 [12] = biological target: T2, KLK7; assay: Enzyme kinetics to calculate KM, KLK7; format: biochemical; settings: fluorogenic substrate, KLK7 34 nM, 2% DMSO, room temperature, 30 min, Michaelis-Menten model, triplicates
Description: as §5, §6, §9, §10, §8, §11, §12, §13, §14, §15

endogenous tPA and uPA = assay: Competition labelling in Capan-2 conditioned media (NeutrAvidin-HRP blot); settings: 2 h preincubation then bABP 17 1 h, concentrations as high as 40 μM
Text: as §16

[13] = Fluoroblok insert without Matrigel
[14] = Matrigel-coated Fluoroblok insert

biotin–Ahx–DPhe–Ser(Z)–Dht–ArgPP [compound 17]
effect on migration (Capan-2 cells [1]; [13]): reduced
effect on invasion (Capan-2 cells [1]; [14]): reduced
effect on migration (BxPC-3 cells; [13]): no effect
effect on invasion (BxPC-3 cells; [14]): no effect
KLK6 kobs/I (KLK6): 11000 M^–1 s^–1 and 11000 ± 300 M^–1 s^–1
KLK6 kobs/I (KLK6; listed as IMP-2352): 11,000 M^–1 s^–1
labeling of intracellular proteases [2]: did not label any intracellular protease
KLK8 kobs/I (KLK8 [3]): 140 M^–1 s^–1 and 140 ± 5 M^–1 s^–1
selectivity for KLK6 over KLK8 (KLK8 [3]; ratio of kobs/I): > 70 fold
KLK7 kobs/I (KLK7 [4]): 350 M⁻¹ s⁻¹ and 350 ± 90 M⁻¹ s⁻¹
selectivity for KLK6 over KLK7 (KLK7 [4]; ratio of kobs/I): > 30 fold
effect on proliferation (percentage confluency) (Capan-2 cells [5]): no effect
inhibition of recombinant KLK6 versus tPA and uPA [6]: selectively inhibit KLK6 over the two off-targets
selectivity for KLK6 over tPA ([7]; ratio of kobs/I): > 600 fold
proteases labeled/enriched over DMSO control [8]: KLK6, along with two off-targets, uPA and tPA
selectivity for KLK6 over uPA ([9]; ratio of kobs/I): > 600 fold
labeling of endogenous KLK6 (endogenous active KLK6): efficiently labels endogenous active KLK6
lowest probe concentration detecting active KLK6 (endogenous active KLK6; dose-dependent): 50 nM

Boc-Val-Pro-Arg-{AMC}
Km (KLK8 [10]): 290 µM

Cy5–DPhe–Ser(Z)–Dht–ArgPP [compound 21, Cy5-tagged KLK6 ABP]
labeling of active recombinant KLK6 [11]: dose-dependent labeling
KLK6 kobs/I (KLK6): 1000 M^–1 s^–1
KLK8 kobs/I (KLK8 [3]): 40 M^–1 s^–1
KLK7 kobs/I (KLK7 [4]): 26 M⁻¹ s⁻¹
tPA kobs/I ([7]; tPA 2 nM, Z-GGR-AMC 60 µM, manufacturer's buffer, room temperature, 30 min, pseudo first order kinetics, triplicates): 8 M⁻¹ s⁻¹
uPA kobs/I ([9]; uPA 2 nM, Z-GGR-AMC 60 µM, manufacturer's buffer, room temperature, 30 min, pseudo first order kinetics, triplicates): 0 M⁻¹ s⁻¹
labeling of inactive KLK6[S195A] mutant (KLK6[S195A]): not labeled

Ac-KHLF-{ACC} (SMILES CC(=O)N[C@@H](CCCCN)C(=O)N[C@@H](Cc1c[nH]cn1)C(=O)N[C@@H](CC(C)C)C(=O)N[C@@H](Cc1ccccc1)C(=O)Nc1ccc2c(CC(N)=O)cc(=O)oc2c1) [compound 24, purified fluorogenic substrate for KLK7]
Km (KLK7 [12]): 56 µM

Yn–DPhe–Ser(Z)–Dht–ArgPP [compound 19]
KLK6 kobs/I (KLK6): 3000 M^–1 s^–1
engagement of endogenous tPA and uPA (endogenous tPA and uPA): does not substantively engage

From PMC9756341 (Journal of the American Chemical Society, 2022)
